Assays:
[1] = test system: QUAS-luc2 reporter (QF activation, QS repression) in Drosophila S2 cells; test: Dual luciferase reporter assay in transiently transfected Drosophila S2 cells, QUAS-luc2 reporter (QF/QS); assay type: cell-based
Method: (§1) S2 Cell Transfection: S2 cells (gift of M. Simon, Stanford University) were maintained in Shields and Sang M3 insect medium (Sigma, Catalog #S8398), prepared according to the manufacturer's instructions and supplemented with 10% heat inactivated fetal bovine serum (FBS) and antibiotics (from 100× penicillin/streptomycin stock, Invitrogen, Catalog #15140). FBS was heat inactivated at 56° C. for 30 minutes. The cells were grown in an air incubator at 25° C. For transfection, 0.4 ml of complete M3 medium containing 5*10^5 Drosophila S2 cells were plated into individual wells of 24-well plates several hours before the transfection. The DNA for transfection was mini-prepped (QIAprep Miniprep kit, Qiagen, Catalog #27106), DNA concentrations were determined using the Nanoprop 1000 spectrophotometer (Thermo Scientific), diluted in 10 mM TRIS-HCl pH 7.5, 0.1 mM EDTA to 25 ng/μl, and filtered through a 13-mm 0.2 μm filter (Nalgene, Catalog #180-1320). For individual transfections, we used 0.2 μg of total DNA (total of 8 μl from 25 ng/μl stocks) including one or more of the following: 25 ng of reporter, 12.5 ng of a transcription factor plasmid and the amount or repressor plasmid that was adjusted according to the molarity of the corresponding transcription factor plasmid to get either equimolar, 3-fold or 5-fold higher molar concentration, as indicated. Each sample also contained 2.5 ng of pPAC5C-hRluc, which was used for normalization of the firefly luciferase signal for each sample (see below) and pBluescript to supplement the total DNA amount to 0.2 μg. The cells were transfected using Effectene (Qiagen, Catalog #301425) according to the manufacturer's protocol (for each sample we used: 59 μl EC buffer; 1.6 μl enhancer solution; 4 μl Effectene and 350 μl M3 medium). 12 h after the addition of transfection mixes to cells, quinic acid was added where indicated from 50× stocks. The starting quinic acid stock solution (250 mg/ml) was prepared from D-(−)-quinic acid (Sigma-Aldrich, 98%, Catalog #138622) in sterile Milli-Q water and neutralized with NaOH to pH˜7. All other 50× stocks were made from this stock by dilution in water. Cells were lysed 24 h after the addition of quinic acid (36 h since the start of transfection), by spinning the 24-well plates for 5′ in a table top centrifuge at ˜1000 g, removing the supernatant by aspiration and incubation with of 200 μl passive lysis buffer (from the Dual Luciferase Reporter Assay System by Promega, Catalog #E1910) with shaking at room temperature for ˜30 minutes. The lysates were transferred into 1.5 ml tubes and frozen at −80° C. The lysates were analyzed using the Dual Luciferase Reporter Assay System, according to the manufacturer's instructions, and the single tube Turner Biosystems luminometer, model 20/20n. The luminescence light signal for both firefly and Renilla luciferases was collected for 10 s. All samples that were transfected with reporters had at least 100-fold higher signal than the background (lysates from pBluescript-only transfected cells). For each sample “X”, the relative luciferase activity (RLA) was calculated according to the following formula: […] where n=number of QUAS-only samples; F=Firefly luciferase luminescence signal; R=Renilla luciferase luminescence signal. Each condition was executed at least in triplicate, the average and SEM were determined for each condition, and statistical significance was evaluated using Student's t-test. […]

[2] = test system: UAS-luc2 reporter (GAL4 activation, GAL80 repression) in Drosophila S2 cells; test: Dual luciferase reporter assay in transiently transfected Drosophila S2 cells, UAS-luc2 reporter (GAL4/GAL80); assay type: cell-based
Method: as §1

[3] = test system: QUAS-luc2 reporter (QF activation, QS repression) in human HeLa cells; test: Dual luciferase reporter assay in transiently transfected human HeLa cells, QUAS-luc2 reporter (QF/QS); assay type: cell-based
Method: (§2) HeLa Cell Transfection: HeLa cells (gift of K. Wehner, Stanford University) were maintained in Dulbecco's Modified Eagle Medium (DMEM, Invitrogen, Catalog #10566), supplemented with 10% FBS and antibiotics (from 100× penicillin/streptomycin stock, Invitrogen, Catalog #15140) in a 37° C. air incubator with 5% CO2. At least 5 hours before transfection, cells were detached and dissociated from the plate using Triple-express (Invitrogen, Catalog #12605) and plated into 24-well plates at 7*10^4 cells in 0.5 ml medium with FBS, but without antibiotics. Cells were transiently transfected using Lipofectamine 2000 (Invitrogen, Catalog #11668-019), according to the manufacturer's instructions. Plasmid DNA for transfection was prepared as described in the S2 cell transfection protocol above. For each sample we used 0.25 μg DNA (total of 10 μl from 25 ng/μl stocks) including one or more of the following: 50 ng of reporter, 25 ng of a transcription factor plasmid and the amount or repressor plasmid that was adjusted according to the molarity of the corresponding transcription factor plasmid to get either equimolar, 3-fold or 5-fold higher molar concentration, as indicated.
Each sample also contained 5 ng of pGL4.75 (hRluc/CMV from Promega), which was used for normalization of the firefly luciferase signal for each sample (see below), and pBluescript to supplement the total DNA amount to 0.25 μg. The DNA was mixed in 50 μl of Opti-MEM (Invitrogen, Catalog #51985) and combined with another 50 μl of Opti-MEM containing 1 μl of Lipofectamine. The medium containing the transfection mix was replaced with DMEM containing FBS and antibiotics 22 h after transfection. Where needed, the medium contained quinic acid supplemented from 50× stocks that were made as described in the S2 cell transfection protocol above. 24 h after the medium was changed, the cells were lysed in 24-well plates and processed as described above in the S2 cell transfection protocol. All samples that were transfected with reporters had at least 100-fold higher signal than the background (lysates from pBluescript-only transfected cells). […] Plasmids used for transfection in HeLa cells were: pUAS-luc2, pQUAS-luc2, pCMV-QF, pCMV-QS, pCMV-GAL4, pCMV-GAL80, pGL4.75 (Promega), pBluescript. Higher QS:QF or GAL80:GAL4 molar ratios are required for effective suppression in HeLa cells compared with Drosophila S2 cells. This phenomenon could be due to codon choice and/or differential activity or stability of activators and repressors at different temperatures—25° C. for S2 and 37° C. for HeLa.

[4] = test system: QS inhibition of ET40-QF driven QUAS-mtdT-HA expression; test: Quinic acid feeding of flies: derepression of QS (fluorescence imaging of adult flies); assay type: in vivo, Drosophila
Method: (§3) Quinic acid feeding of flies: Quinic acid containing medium was made as follows: a few holes were made in standard fly medium with wooden sticks, and 0.3 ml of freshly made D-(−)-quinic acid (Sigma-Aldrich, 98%, Catalog #138622) solution dissolved in water was added per 10 ml of medium. Vials were allowed to air-dry overnight. […] For assaying the effect of quinic acid on developing animals, approximately 10 males and 15 females per vial of the genotype ET40-QF, QUAS-mtdT-3xHA (II); 82B^FRT tubP-QS (III) were allowed to lay eggs for 6 hours on quinic acid containing medium. Animals fed upon and developed in the quinic acid containing food. Adult flies were imaged within 3 days of eclosion. For assaying the effect of quinic acid feeding on adult flies, approximately 30 adult flies per vial of genotype ET40-QF, QUAS-mtdT-3xHA (II); 82B^FRT tubP-QS (III) were allowed to feed on quinic acid medium for the listed times in FIG. 3D. For feedings over multiple days, flies were transferred to fresh quinic acid containing food every two days.
Imaging of adult flies: Adult flies were imaged on a Qlmaging Retiga 2000R Cooled Monochrome Digital camera using a Discovery V8 Pentafluor System (Zeiss) with a DS RED filter cube.

Flies = Flies kept on food containing high doses of quinic acid; assay type: in vivo, Drosophila; settings: 9 generations on food containing high doses of quinic acid
Method: as §3

[5] = Stability of quinic acid in fly food, judged by derepression activity; assay type: physicochemical; settings: food stored for at least a week at 18° C.
Method: as §3

[6] = test system: UAS-luc2 reporter (GAL4 activation) in human HeLa cells; test: Dual luciferase reporter assay in transiently transfected human HeLa cells, UAS-luc2 reporter (GAL4); assay type: cell-based
Method: as §2
Each sample also contained 5 ng of pGL4.75 (hRluc/CMV from Promega), which was used for normalization of the firefly luciferase signal for each sample (see below), and pBluescript to supplement the total DNA amount to 0.25 μg. […]

[7] = adult flies transferred to quinic acid-containing food

O=C(O)[C@]1(O)C[C@@H](O)[C@@H](O)[C@H](O)C1 [quinic acid, D-(−)-quinic acid]
suppression of QS to restore QF-based transcription [1]: significantly suppressed QS | effect on QF activation of QUAS ([1]; high concentration (5 mg/ml)): no effect | re-activation of QUAS compared to the control sample with QUAS, QF and 5xQS ([1]; highest QA concentration tested (QA3=5 mg/ml), 24 h): ~23 fold | derepression of GAL4 (effect on GAL80 repression of GAL4) ([2]; high concentration (5 mg/ml)): ~1.5 fold | effect on Gal4 activation of UAS ([2]; high concentration (5 mg/ml)): no effect | effect on QF-dependent transcription of QUAS [3]: no effect | suppression of QS in mammalian cells ([3]; also observed in COS cells): does not suppress QS | further suppression of QUAS activation in the presence of QF and 5xQS ([3]; two higher QA concentrations tested (250 μg/ml, 5 mg/ml)): ~13 fold | derepression in flies fed for up to 10 days compared with 5 days ([4]; adult flies on quinic acid food): no more derepression | time after which reversion of suppression could be seen [4, 7]: 6 h | time of marked reversion of suppression [4, 7]: 24 h | time of saturation of reversion of suppression [4, 7]: ≤ 5 days | reversion of QS inhibition of ET40-QF driven QUAS-mtdT-HA expression with increasing doses ([4]; quinic acid added to fly food on which flies developed): increasingly reverted | abnormalities in flies (Flies): no noticeable abnormalities | stability in food [5]: appears to be stable

B1: QF: transcriptional activator from the Neurospora crassa qa gene cluster, binds 16-base pair sequence (QUAS) (protein, UniProt P11638 1-816, looked up)
Transcription factor qa-1f: MPPKRKTLNAAAEANAHADGHADGNADGHVANTAASSNNARFADLTNIDTPGLGPTTTTLLVEPARSKRQRVSRACDQCRAAREKCDGIQPACFPCVSQGRSCTYQASPKKRGVQTGYIRTLELALAWMFENVARSEDALHNLLVRDAGQGSALLVGKDSPAAERLHARWATSRVNKSITRLLSGQAAQDPSEDGQSPSEDINVQDAGAKTSDFPHAPHLTFSAPKSSTAETRTLPGPVRPPISANTLENNLQPDGTGIGKLPPNHWRLLDIYFSYTHSWLPILEKKDMYQALYQYSEQGSLLPSANVESGVHAELWSALALASFQAAATAASSATGPASAAHGHDNAINPSPADISDTARKLIPLESGPFQVQHCRALLLLCLVSLGRDDWESAWLLVGFAVRVLLVVRTQLPPDDDRPRPRMRALLVACFIVDTIVSMRHNVPAHLKPDDIADLPLPEDGQDQWEPWTPCEGLGGEHTMLQMLRNPAYPLSTFNHLYGVTKLVALELLPRIRTSSQNAPLEFRSRLQQVIGHNSPFSVFVLSQDTASAFVPTAYLTRTVYLWAAAFSEPLNEHYSHLLIETLDQYQKRFGTYAIPPLIPSLLDSLLALKKQSHSSERHRRHLEELFPAYSSIWPRGGRHSNTGLQPIRQLELPPTATATASIMPHVMEQPLSTSINPVNDRFNGIPNPTPYNSDAALDAITQTNDYGSVNTHGILSTYPPPATHLNEASVALAPGGAPPRPPPPYVDSTTNHPPYHSNLVPMANFGYSTVDYDAMVDDLASIEYTDAVDVDPQFMTNLGFVPGCNFSDISTYEQ
enhancement of luc2 expression from QUAS-luc2 compared with QUAS-luc2 alone [1]: ~3.300 fold | QF activation of UAS, fold less than that of QUAS ([2]; cross-activation): ~1,500 fold | induction of expression from QUAS [3]: ~24.000 fold

B2: GAL4: budding yeast transcription factor of the GAL4/UAS binary expression system (protein, UniProt P04386 1-881, looked up)
Regulatory protein GAL4: MKLLSSIEQACDICRLKKLKCSKEKPKCAKCLKNNWECRYSPKTKRSPLTRAHLTEVESRLERLEQLFLLIFPREDLDMILKMDSLQDIKALLTGLFVQDNVNKDAVTDRLASVETDMPLTLRQHRISATSSSEESSNKGQRQLTVSIDSAAHHDNSTIPLDFMPRDALHGFDWSEEDDMSDGLPFLKTDPNNNGFFGDGSLLCILRSIGFKPENYTNSNVNRLPTMITDRYTLASRSTTSRLLQSYLNNFHPYCPIVHSPTLMMLYNNQIEIASKDQWQILFNCILAIGAWCIEGESTDIDVFYYQNAKSHLTSKVFESGSIILVTALHLLSRYTQWRQKTNTSYNFHSFSIRMAISLGLNRDLPSSFSDSSILEQRRRIWWSVYSWEIQLSLLYGRSIQLSQNTISFPSSVDDVQRTTTGPTIYHGIIETARLLQVFTKIYELDKTVTAEKSPICAKKCLMICNEIEEVSRQAPKFLQMDISTTALTNLLKEHPWLSFTRFELKWKQLSLIIYVLRDFFTNFTQKKSQLEQDQNDHQSYEVKRCSIMLSDAAQRTVMSVSSYMDNHNVTPYFAWNCSYYLFNAVLVPIKTLLSNSKSNAENNETAQLLQQINTVLMLLKKLATFKIQTCEKYIQVLEEVCAPFLLSQCAIPLPHISYNNSNGSAIKNIVGSATIAQYPTLPEENVNNISVKYVSPGSVGPSPVPLKSGASFSDLVKLLSNRPPSRNSPVTIPRSTPSHRSVTPFLGQQQQLQSLVPLTPSALFGGANFNQSGNIADSSLSFTFTNSSNGPNLITTQTNSQALSQPIASSNVHDNFMNNEITASKIDDGNNSKPLSPGWTDQTAYNAFGITTGMFNTTTMDDVYNYLFDDEDTPPNPKKE
GAL4 activation of QUAS, fold less than that of UAS ([1]; cross-activation): ~200 fold | higher inducibility than QF/QUAS [2]: ~1.6 fold | induction of luc2 expression from UAS-luc2 [2]: ~5,300 fold | induction of UAS [6]: ~1000 fold

Source: patent publication US20110277050A1, “SYSTEM AND METHODS TO CONTROL TRANSGENE EXPRESSION” (The Board of Trustees of the Leland Stanford Junior …, priority 2010, published 2011)
